In patent publication US12263144B2, “Methods of treating IgA nephropathy with thiol-containing molecules” (Accubit LLC—Biotechnology, priority 2020, dated 2025):

Tests used:
Assay type in all cases: biochemical
[1] = system: natural IgA1 assembly (two heavy chains and two light chains connected via disulfide bonds); test: Ex vivo study: integrity of natural IgA assembly under thiol/reducing agents
Experimental: (§1) The overall complex size of IgA aggregates was determined either by size-exclusion chromatography (SEC: Superdex 200 Increase 10/300 by GL Cytiva), or by SDS-PAGE. For evaluating the involvement of intermolecular disulfide connectivity in IgA complexes, IgA samples were treated with either reducing agents, such as DTT, TCEP or reduced glutathione (Sigma), or interventional drugs, such as cysteamine (Sigma), WR-1065 (Sigma) and N-Acetyl-L-cysteine (VWR Chemicals) in phosphate-buffered saline (PBS) pH7.4. Before running on SEC, samples were treated with the drugs at indicated concentrations at 37° C. for one hour.
(§2) Proteins in sample buffer (Bio-Rad Laboratories, Hercules, CA, USA) with or without TCEP (for reducing or nonreducing condition, respectively) were resolved by 4-12% SDS-PAGE (Bio-Rad Laboratories). IgA bands were subsequently visualized either by staining with GelCode Blue (Thermo Fisher Scientific), or by Western blotting on PVDF membrane. For Western blotting, 5% non-fat milk was used in blocking for one hour at room temperature. The membrane was then incubated with mouse anti-Histag antibody (Thermo Scientific), or HRP-conjugated goat anti-rat IgA α-chain antibody (Cat. ab97185, Abcam, UK), or goat anti-human IgA HRP antibody (Cat: 2050-05, SouthernBiotech) for detecting rat or human IgA (Fc), respectively. The membrane was developed using the Clarity™ ECL substrate (Bio-Rad Laboratories, CA, USA).

Rat rIgA (poly-rIgA) = test: SEC determination of poly- and mono-rIgA content of rat rIgA after treatment; settings: for disassembly of poly-rIgA into monomers (SEC): rat rIgA, reducing agents added, FIG. 3 A-C
Experimental: as §1
In the meantime, the SEC column was also equilibrated with PBS supplemented with the reducing agent at the same concentration. For running SEC, 100 μL of the recombinant IgA (concentration varies between 1 mg/mL and 8 mg/mL) or purified native human IgA1 (˜1 mg/mL) was loaded to the column and UV absorption was recorded following elution. […] The ratios between poly-rIgA and mono-rIgA were calculated as between the corresponding areas under the curve (AUC), and the treatment effect of the thiol agents was judged by the reduction of the poly-rIgA level with a compensatory increase of the mono-rIgA content.
To further investigate specific cysteine residue(s) involved in IgA complexes, expression vectors were constructed to produce recombinant IgA (rIgA) Fc segments of rat and human sequences (FIG. 2, part A) as discussed above. Rat IgA analogs were expressed in BL21 DE3 strain of E. coil and recombinant protein were purified from the bacterial lysate using Histrap HP columns (GE Healthcare) by running fast protein liquid chromatography (FPLC). Human recombinant IgA mimetics were produced from human embryo kidney (HEK293) cells by transfection of the expressing plasmids. Recombinant IgA proteins expressed by the cells were secreted into the culture medium, and they were subsequently purified by Histrap HP columns by FPLC using standard procedures. […] Rat rIgA was produced from bacterial expression as discussed above.
Cysteamine (Cy), an aminothiol that can react with cysteine, is both a natural metabolite produced in mammalian cells and a clinical drug used for treatment of cystinosis. In cystinosis, cysteamine reduces the disulfide bond in cystine, which is the oxidated dimer of amino acid cysteine (FIG. 4, part A). In the context of cysteine residues in proteins, endogenous cysteamine as well as the therapeutic drug forms mixed disulfides with susceptible cysteine sulfhydryl groups in a process called cysteamination (FIG. 4, part B). It was sought to determine whether cysteamine could reduce Cys471-disulfides to disaggregate poly-IgA. Rat rIgA (SEQ ID NO.4) was treated with various concentrations of cysteamine for one hour at 37° C. in phosphate buffered saline at neutral pH and the protein complexes were analyzed by SEC. The SEC column (model: Superdex 200 Increase 10/300 GL by Cytiva) was preequilibrated with the same buffer supplemented with the same concentration of cysteamine.

[2] = target: T1, poly-IgA complexes from IgA nephropathy patients' plasma (Homo sapiens, UniProt P01876); test: SDS-PAGE / anti-IgA Western blotting of poly-IgA from IgA nephropathy patients' plasma with or without reducing agent; settings: reducing condition
T1 construct: human IgA1 whole molecule was purified from pooled plasma of IgA nephropathy patients; from tissue
Text: (§3) IgA1 from IgA nephropathy patient sera was purified by Jacalin (Thermo Scientific, USA)-directed affinity chromatography. Poly-IgA1 contents were further enriched via running Superdex 200 Increase gel filtration molecular sieve (GE Biosciences) and collecting high-molecular weight fractions from an AKTA protein purification system (GE Biosciences). Human serum from healthy donors was purchased from Sigma-Aldrich and total IgA1 was also purified by running Jacalin-directed chromatography. Purified total IgA1 was used for injecting mice.
Proteins in sample buffer (Bio-Rad Laboratories, Hercules, CA, USA) with or without TCEP (for reducing or nonreducing condition, respectively) were resolved by 4-12% SDS-PAGE (Bio-Rad Laboratories). IgA bands were subsequently visualized either by staining with GelCode Blue (Thermo Fisher Scientific), or by Western blotting on PVDF membrane. […]
In this Example, it was sought to isolate high molecular weight IgA complexes, such as poly-IgA, from plasma of IgA nephropathy patients. […] By running SDS-PAGE of the poly-IgA fraction under both reducing and nonreducing conditions, it was determined that the molecular complexes of IgA were connected through disulfide bridges (FIG. 1, part B). […] IgA1 complexes were extracted from individual patients by SEC and analyzed the contents by SDS-PAGE.

human IgA1 (poly-IgA1) = target: T2, human IgA1 (poly-IgA1) (Homo sapiens, UniProt P01876); test: SEC of native human IgA1 treated ex vivo; settings: total IgA1 from human sera, FIG. 5 E-F
T2 construct: human IgA1 whole molecule was purified from pooled plasma of IgA nephropathy patients; from tissue
Text: as §3, §1
In the meantime, the SEC column was also equilibrated with PBS supplemented with the reducing agent at the same concentration. For running SEC, 100 μL of the recombinant IgA (concentration varies between 1 mg/mL and 8 mg/mL) or purified native human IgA1 (˜1 mg/mL) was loaded to the column and UV absorption was recorded following elution. Recombinant IgA typically formed two elution peaks: a minor peak of ˜800 kDa poly-rIgA followed by a major peak of ˜170 kDa of monomeric rIgA. The ratios between poly-rIgA and mono-rIgA were calculated as between the corresponding areas under the curve (AUC), and the treatment effect of the thiol agents was judged by the reduction of the poly-rIgA level with a compensatory increase of the mono-rIgA content.
In addition, human IgA1 whole molecule was purified from pooled plasma of IgA nephropathy patients and subjected the sample to different concentrations of cysteamine (FIG. 5, part C). […]

rat poly-rIgA = test: Nonreducing SDS-PAGE analysis of rat poly-rIgA after pretreatment; settings: cysteamine 0 to 10 mM; TCEP 10 mM; untreated poly-IgA >250 kDa
Experimental: as §2
To further ascertain the mechanism-of-action of cysteamine in targeting disulfides, nonreducing SDS-PAGE analysis was performed of rat poly-rIgA (FIG. 5, part D). The samples were pretreated with 0 to 10 mM cysteamine, or 10 mM TCEP as positive control. As expected, poly-IgA appeared as >250 kDa bands on SDS-PAGE. Dose-dependent response of poly-rIgA to cysteamine was evident, with majority of the protein running at ˜64 kDa of disaggregated monomers.

T2 sequence (P01876 1-353 isoform P01876-1): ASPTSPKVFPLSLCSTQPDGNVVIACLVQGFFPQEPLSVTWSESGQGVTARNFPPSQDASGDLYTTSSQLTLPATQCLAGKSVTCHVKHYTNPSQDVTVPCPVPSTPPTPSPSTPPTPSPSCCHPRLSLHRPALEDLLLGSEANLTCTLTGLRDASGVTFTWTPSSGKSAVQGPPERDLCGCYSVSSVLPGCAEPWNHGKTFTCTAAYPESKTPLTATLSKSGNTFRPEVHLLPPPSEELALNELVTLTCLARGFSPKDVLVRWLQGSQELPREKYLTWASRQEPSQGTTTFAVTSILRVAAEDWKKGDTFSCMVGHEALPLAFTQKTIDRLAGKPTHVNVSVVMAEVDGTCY
T1 sequence (P01876 1-353 isoform P01876-1, one chain of several): as the sequence (P01876 1-353 isoform P01876-1) above

Compound	disruption of natural IgA assembly / normal pairing of IgA heavy chains [1]	disassembly of poly-rIgA into monomers (SEC) (Rat rIgA (poly-rIgA))	poly-IgA level (SEC) (human IgA1 (poly-IgA1))	also measured
O[C@@H](CS)[C@@H](O)CS (racemic) [DDT, 1,4-Dithiothreitol]	inadvertently dissociated normal pairing of IgA heavy chains	poly-rIgA disassembled into monomers		
OCCS [2-mercaptoethanol]				size of IgA1 band after reduction of ~600 kDa poly-IgA1 (Western blot) ([2]; eight individual IgA nephropathy patients): ~65 kDa
CC(=O)N[C@@H](CS)C(=O)O [N-acetylcysteine, N-acetyl-L-cysteine]	did not cause unwanted disruption of natural IgA1 assembly		lowered poly-IgA levels in a dose-dependent manner	
O=C(O)CCP(CCC(=O)O)CCC(=O)O [TCEP, tris(2-carboxyethyl)phosphine]	inadvertently dissociated normal pairing of IgA heavy chains	poly-rIgA disassembled into monomers		molecular weight of protein band after pretreatment (nonreducing SDS-PAGE) (rat poly-rIgA): ~32 kDa; size of IgA band after reduction of ~600 kDa poly-IgA (Western blot) ([2]; pooled plasma of IgA nephropathy patients (n=10)): ~65 KDa
NCCCNCCS [WR-1065, 2-[(3-aminopropyl)amino]ethanethiol]	did not cause unwanted disruption of natural IgA1 assembly		reduction of poly-IgA levels	
N[C@@H](CCC(=O)N[C@@H](CS)C(=O)NCC(=O)O)C(=O)O [glutathione]				effect on poly-IgA levels at comparable concentrations (Rat rIgA (poly-rIgA); compared with cysteamine, WR-1065, N-acetylcysteine): relatively modest effects on poly-IgA levels
